In patent publication US4751233A, “8[2-(imidazolyl)thio] and 8[2-(thiazolyl)thio]-5,6,7,8-tetrahydroquinolines, and anti-allergic use thereof” (Roussel Uclaf, priority 1985, dated 1988):

Experiments:
5-lipoxygenase = biological target: T1, 5-lipoxygenase (Rattus norvegicus, UniProt P12527); experiment: 5-LIPOX: inhibition of Ca++ ionophore (A23187) induced release of 5-lipoxygenase products (leukotriene B4 and 5-HETE) from [14C]arachidonic acid pre-labelled rat peritoneal neutrophils; type: cell-based; conditions: A23187-induced release of leukotriene B4 and 5-HETE, graphically from dose-response curves, read-out: 5-LIPOX (concentration of test compound causing 50% inhibition of control response)
T1 sequence (P12527 1-673): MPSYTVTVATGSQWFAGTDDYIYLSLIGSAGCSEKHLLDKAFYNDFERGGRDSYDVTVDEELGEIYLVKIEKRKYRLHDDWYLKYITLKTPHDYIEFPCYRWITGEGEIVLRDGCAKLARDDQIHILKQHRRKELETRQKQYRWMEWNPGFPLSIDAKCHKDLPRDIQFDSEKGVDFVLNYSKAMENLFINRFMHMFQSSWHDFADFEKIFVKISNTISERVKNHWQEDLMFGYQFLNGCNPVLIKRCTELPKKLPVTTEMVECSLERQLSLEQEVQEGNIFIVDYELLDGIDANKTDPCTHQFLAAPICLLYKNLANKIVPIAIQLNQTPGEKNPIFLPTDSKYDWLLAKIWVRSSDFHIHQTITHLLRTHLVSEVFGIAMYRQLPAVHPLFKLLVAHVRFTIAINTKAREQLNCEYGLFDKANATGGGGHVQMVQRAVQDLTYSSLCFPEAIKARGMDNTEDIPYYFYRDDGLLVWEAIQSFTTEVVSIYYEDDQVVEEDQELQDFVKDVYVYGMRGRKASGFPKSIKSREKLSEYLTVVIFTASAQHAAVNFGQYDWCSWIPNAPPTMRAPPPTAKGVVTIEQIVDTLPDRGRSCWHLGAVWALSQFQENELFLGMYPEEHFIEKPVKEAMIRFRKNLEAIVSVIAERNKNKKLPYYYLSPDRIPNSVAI
Text: Inhibition of the Ca^++ ionophore (A23187) induced release of 5-lipoxygenase products, leukotriene B4 and 5-HETE, from [^14 C]arachidonic acid pre-labelled rat peritoneal neutrophils. Assayed by a modification of the method reported by Ahnfelt-Ronne et al [Biochemical Pharmacology, Vol. 31, No. 16, pp 2619-2624 (1982)]. Data presented in Table II are micromolar concentrations of test compound causing 50% inhibition of control response determined graphically from dose-response curves.

LTD4 receptor = biological target: T2, LTD4 receptor (Cavia porcellus, UniProt Q2NNR5); experiment: LTD4 RECEPTOR: inhibition of specific binding of [3H]-LTD4 to a membrane preparation of guinea-pig lung tissue; conditions: [3H]-LTD4, guinea-pig lung membranes; for IC50: graphically from dose-response curves, read-out: LTD4 receptor (concentration of tested compound causing 50% inhibition of specific binding)
T2 construct: membrane preparation of guinea-pig lung tissue; from tissue; host or cells: guinea-pig lung membranes
T2 sequence (Q2NNR5 1-340): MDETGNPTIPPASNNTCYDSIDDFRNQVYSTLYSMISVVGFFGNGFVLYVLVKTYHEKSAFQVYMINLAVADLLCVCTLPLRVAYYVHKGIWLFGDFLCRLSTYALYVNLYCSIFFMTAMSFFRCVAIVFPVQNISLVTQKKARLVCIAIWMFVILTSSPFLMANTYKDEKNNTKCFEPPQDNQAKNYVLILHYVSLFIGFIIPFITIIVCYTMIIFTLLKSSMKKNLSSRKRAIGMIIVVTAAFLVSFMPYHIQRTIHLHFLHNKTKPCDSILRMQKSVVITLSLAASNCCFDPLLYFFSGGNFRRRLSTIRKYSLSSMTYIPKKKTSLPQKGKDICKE
Method: Inhibition of the specific binding of [^3 H]-LTD4 to a membrane preparation of guinea-pig lung tissue was assayed by a modification of a method reported by Bruns et al [Life Sciences, Vol. 33, pp. 645-653 (1983)]and the data presented in Table II are micromolar concentrations of the tested compound causing 50% ihibition of specific binding determined graphically from dose-response curves.

SMILES | IC50 (5-lipoxygenase) | IC50 (LTD4 receptor) | LTD4 receptor, remark printed beside the value (LTD4 receptor; remark in words)
Clc1cc2nc(SC3CCCc4cccnc43)sc2cc1Cl (stereo not shown) [Example 18, 8-[(5,6-dichloro-2-benzothiazolyl)thio]-5,6,7,8-tetrahydroquinoline] | 45 µM | 100 µM | 
FC(F)(F)c1ccc2sc(SC3CCCc4cccnc43)nc2c1 (stereo not shown) [Example 21, 8-[(5-trifluoromethyl-2-benzothiazolyl)thio]-5,6,7,8-tetrahydroquinoline] | 2.6 µM | 18 µM | 
Clc1cccc2sc(SC3CCCc4cccnc43)nc12 (stereo not shown) [Example 23] | 12 µM | 33 µM | 
Cc1cccc2sc(SC3CCCc4cccnc43)nc12 (stereo not shown) [Example 24, 8-[(4-methyl-2-benzothiazolyl)thio]-5,6,7,8-tetrahydroquinoline] | 3.5 µM | 14 µM | 
Clc1cc(Cl)c2nc(SC3CCCc4cccnc43)sc2c1 (stereo not shown) [Example 22, 8-[(4,6-dichloro-2-benzothiazolyl)thio]-5,6,7,8-tetrahydroquinoline] | 22 µM | > 100 µM | 
c1ccc(-c2nc(SC3CCCc4cccnc43)[nH]c2-c2ccccc2)cc1 (stereo not shown) [Example 25, 8-(4,5-diphenyl-1H-imidazol-2-ylthio)-5,6,7,8-tetrahydroquinoline] | 3 µM | > 100 µM | pot.
c1cnc2c(c1)CCCC2Sc1nccs1 (stereo not shown) [Example 27, 8-(2-thiazolylthio)-5,6,7,8-tetrahydroquinoline] | 25.1 µM | > 100 µM | 
Cn1ccnc1SC1CCCc2cccnc21 (stereo not shown) [Example 26, 8-(1-methylimidazol-2-ylthio)-5,6,7,8-tetrahydroquinoline] | > 100 µM | > 100 µM | 
c1cnc2c(c1)CCCC2Sc1nc2ccccc2o1 (stereo not shown) [Example 9, 8-(2-benzoxazolylthio)-5,6,7,8-tetrahydroquinoline] | 16.9 µM | > 100 µM | 
Cc1ccc2sc(SC3CCCc4cccnc43)nc2c1 (stereo not shown) [Example 17, 8-[(5-methyl-2-benzothiazolyl)thio]-5,6,7,8-tetrahydroquinoline] | 1.5 µM | 7.1 µM | 
CCOc1ccc2nc(SC3CCCc4cccnc43)sc2c1 (stereo not shown) [Example 13, 8-[(6-ethoxy-2-benzothiazolyl)thio]-5,6,7,8-tetrahydroquinoline] | 1.2 µM | 9 µM | 
O=[N+]([O-])c1ccc2nc(SC3CCCc4cccnc43)sc2c1 (stereo not shown) [Example 20] | 4 µM | > 100 µM | 
COC(=O)Cc1ccc2oc(SC3CCCc4cccnc43)nc2c1 (stereo not shown) [Example 10, methyl 2-[(5,6,7,8-tetrahydro-8-quinolinyl)-thio]benzoxazole-5-acetate] | 14.1 µM | 12 µM | 
O=[N+]([O-])c1ccc2sc(SC3CCCc4cccnc43)nc2c1 (stereo not shown) [Example 16, 8-[(5-nitro-2-benzothiazolyl)thio]-5,6,7,8-tetrahydroquinoline] | 2 µM | > 100 µM | 
c1cnc2c(c1)CCCC2Sc1nc2ccccc2s1 (stereo not shown) [Example 1, 8-(2-benzothiazolylthio)-5,6,7,8-tetrahydroquinoline] | 1.8 µM | 10 µM | 

Further lines, results first:

IC50 (5-lipoxygenase) | IC50 (LTD4 receptor) | LTD4 receptor, remark printed beside the value (LTD4 receptor; remark in words) | SMILES
2.3 µM | 9.5 µM |  | Cc1ccc2nc(SC3CCCc4cccnc43)sc2c1 (stereo not shown) [Example 15, 8-[(6-methyl-2-benzothiazolyl)thio]-5,6,7,8-tetrahydroquinoline]
1.1 µM | 1.7 µM |  | CCSc1ccc2nc(SC3CCCc4cccnc43)sc2c1 (stereo not shown) [Example 19, 8-[(6-ethylthio-2-benzothiazolyl)thio]-5,6,7,8-tetrahydroquinoline]
4.2 µM |  |  | Clc1cc2nc(SC3CCCc4cccnc43)[nH]c2cc1Cl (stereo not shown) [Example 7, 8-(5,6-dichloro-1H-benzimidazol-2-ylthio)-5,6,7,8-tetrahydroquinoline]
58 µM |  |  | COc1ccc2nc(SC3CCCc4cccnc43)[nH]c2c1 (stereo not shown) [Example 2, 8-(6-methoxy-1H-benzimidazol-2-ylthio)-5,6,7,8-tetrahydroquinoline]
1.5 µM | 100 µM |  | Clc1ccc2sc(SC3CCCc4cccnc43)nc2c1 (stereo not shown) [Example 11, 8-[(5-chloro-2-benzothiazolyl)thio]-5,6,7,8-tetrahydroquinoline]
2.6 µM | 8.9 µM |  | Clc1ccc2nc(SC3CCCc4cccnc43)sc2c1 (stereo not shown) [Example 12]
5 µM | 74 µM |  | Cc1ccc2nc(SC3CCCc4cccnc43)[nH]c2c1 (stereo not shown) [Example 6, 8-(6-methyl-1H-benzimidazol-2-ylthio)-5,6,7,8-tetrahydroquinoline]
20 µM |  |  | CCOC(=O)Cc1ccc2[nH]c(SC3CCCc4cccnc43)nc2c1 (stereo not shown) [Example 4, ethyl 2-[(5,6,7,8-tetrahydro-8-quinolinyl)-thio]-1H-benzimidazole-5-acetate]
> 100 µM | > 100 µM |  | O=c1[nH]c(SC2CCCc3cccnc32)nc2ccccc12 (stereo not shown) [Example 14, 2-[(5,6,7,8-tetrahydroquinoline-8-yl)thio]-4(3H)-quinazolinone]
6.6 µM | > 100 µM |  | O=[N+]([O-])c1ccc2nc(SC3CCCc4cccnc43)[nH]c2c1 (stereo not shown) [Example 5, 8-(6-nitro-1H-benzimidazol-2-ylthio)-5,6,7,8-tetrahydroquinoline]
35.1 µM | > 100 µM |  | c1cnc2c(c1)CCCC2Sc1nc2ccccc2[nH]1 (stereo not shown) [Example 3, 8-(1H-benzimidazol-2-ylthio)-5,6,7,8-tetrahydroquinoline]
1.9 µM | 6.3 µM |  | Clc1ccc2nc(SC3CCCc4cccnc43)[nH]c2c1 (stereo not shown) [Example 8, 8-(6-chloro-1H-benzimidazol-2-ylthio)-5,6,7,8-tetrahydroquinoline]
